From PubChem BioAssay (NCI) come the findings set out here.

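Interpolation was linear, between the two tested concentrations surrounding the appropriate level; five concentrations were tested over 48 hours in 96-well plates. GI50 is the concentration that inhibits growth by half. At the TGI there is no net growth.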 Some results are limits rather than exact numbers.

Test systems include LOX IMVI melanoma; A498 renal; HCT-116 colon; SF-268 CNS; NCI-H460 lung; SK-MEL-28 melanoma; CAKI-1 renal; OVCAR-3 ovarian; SF-295 CNS; NCI-H522 lung.
Experiment in all cases: NCI tumour cell line growth inhibition, 48 h

Consider `COC(c1ccc(C(C)(C)C)cc1)(c1ccc(C(C)(C)C)cc1)c1ccc(C(C)(C)C)cc1`, for which the TGI in the assay with LOX IMVI melanoma, with A498 renal, in the assay on HCT-116 colon, in the assay with SF-268 CNS, in the assay with NCI-H460 lung and with SK-MEL-28 melanoma was greater than 100 µM in each case. The TGI with CAKI-1 renal, in the assay on OVCAR-3 ovarian, in the assay with SF-295 CNS and with NCI-H522 lung was greater than 100 µM each time.
For `O=C1Nc2ccccc2/C1=C1\CCc2cc(O)ccc21`, the GI50 in the assay on LOX IMVI melanoma is 6.5 µM; with A498 renal it was 5.65 µM; with HCT-116 colon it was 8.79 µM; in the assay with SF-268 CNS, 10.1 µM; with NCI-H460 lung, 8.7 µM; in the assay with SK-MEL-28 melanoma it was 15.3 µM. Also, the GI50 in the assay on CAKI-1 renal was 7.12 µM; with OVCAR-3 ovarian, 9.95 µM; in the assay with SF-295 CNS, 11.3 µM; in the assay with NCI-H522 lung, 9.85 µM. For the same molecule, the TGI with LOX IMVI melanoma is greater than 25 µM; in the assay on A498 renal it was 17.8 µM; with HCT-116 colon it was greater than 25 µM; with SF-268 CNS, greater than 25 µM; with NCI-H460 lung, greater than 25 µM; with SK-MEL-28 melanoma, greater than 25 µM. For the same molecule, the TGI with CAKI-1 renal, with OVCAR-3 ovarian, in the assay on SF-295 CNS and with NCI-H522 lung was greater than 25 µM throughout.
Consider `COc1ccc(-c2cnnn2-c2nonc2-n2cccc2)cc1`, for which the GI50 in the assay on LOX IMVI melanoma was 0.594 µM; with A498 renal it was 0.183 µM; in the assay with HCT-116 colon, 0.354 µM; in the assay with SF-268 CNS, 0.52 µM; with NCI-H460 lung, 0.344 µM; in the assay with SK-MEL-28 melanoma it was 0.52 µM. For the same molecule, the GI50 with CAKI-1 renal is 0.245 µM; with OVCAR-3 ovarian, 0.179 µM; with SF-295 CNS, 0.246 µM; with NCI-H522 lung it was 0.136 µM. The TGI in the assay with LOX IMVI melanoma was 19 µM; with A498 renal, 0.893 µM; in the assay with SF-268 CNS, 27.6 µM; in the assay on NCI-H460 lung it was 11.6 µM; in the assay on SK-MEL-28 melanoma it was greater than 100 µM; with CAKI-1 renal it was greater than 67.1 µM. Moreover, the figures for the TGI in the assay on OVCAR-3 ovarian, with SF-295 CNS and in the assay with NCI-H522 lung were 0.47 µM, 6.21 µM and 0.487 µM, respectively.
On to `O=c1[nH]cnc(NC2C=C(CO)C(O)C2O)c1[N+](=O)[O-]` (centres undefined), for which the TGI was greater than 59.6 µM in the assay on LOX IMVI melanoma; greater than 100 µM in the assay on A498 renal; greater than 53.1 µM with HCT-116 colon; greater than 100 µM in the assay on SF-268 CNS; greater than 58.2 µM in the assay on NCI-H460 lung; greater than 100 µM with SK-MEL-28 melanoma. Further, the TGI in the assay on CAKI-1 renal, in the assay on OVCAR-3 ovarian, with SF-295 CNS and with NCI-H522 lung was greater than 100 µM in each case.
With `Cc1ccc(OCCOCCOCCOCCOc2ccc(C)n(O)c2=S)c(=S)n1O`, the GI50 in the assay on LOX IMVI melanoma was 0.0481 µM; in the assay on A498 renal it was 0.323 µM; in the assay on HCT-116 colon, less than 0.01 µM; with SF-268 CNS it was 0.0482 µM; in the assay on NCI-H460 lung it was less than 0.01 µM; in the assay on SK-MEL-28 melanoma, 0.356 µM. In addition, the GI50 is less than 0.0146 µM with CAKI-1 renal, less than 0.01 µM in the assay with OVCAR-3 ovarian, 0.0261 µM in the assay with SF-295 CNS and 0.0294 µM in the assay with NCI-H522 lung. For the same molecule, the TGI with LOX IMVI melanoma was greater than 69.6 µM; with A498 renal, 10.9 µM; in the assay on HCT-116 colon it was greater than 100 µM; in the assay with SF-268 CNS, greater than 100 µM; with NCI-H460 lung, 7.28 µM; in the assay with SK-MEL-28 melanoma, greater than 100 µM. In addition, the TGI in the assay on CAKI-1 renal is greater than 100 µM; in the assay on OVCAR-3 ovarian it was 50.8 µM; with SF-295 CNS, greater than 100 µM; in the assay with NCI-H522 lung, greater than 79.7 µM.
As for `CCOC(=O)NC(=O)c1cn(C2CCCCC2)c(=O)[nH]c1=O`, the TGI in the assay with LOX IMVI melanoma, in the assay on A498 renal, in the assay with HCT-116 colon, with SF-268 CNS, in the assay on NCI-H460 lung and in the assay with SK-MEL-28 melanoma was greater than 100 µM each time. Besides, the TGI in the assay with CAKI-1 renal, in the assay with OVCAR-3 ovarian, in the assay with SF-295 CNS and with NCI-H522 lung was greater than 100 µM throughout.
In the case of `CN(C)CCNCCN`, the TGI in the assay on LOX IMVI melanoma, in the assay on A498 renal, in the assay on HCT-116 colon, with SF-268 CNS, in the assay with NCI-H460 lung and in the assay with SK-MEL-28 melanoma was greater than 100 µM throughout. Besides, the TGI with CAKI-1 renal, in the assay with OVCAR-3 ovarian, in the assay with SF-295 CNS and in the assay on NCI-H522 lung was greater than 100 µM in each case.
Consider `CCc1ccc2c(c1)C(=O)c1c-2n(CCCN=[N+]=[N-])c(=O)c2cc([N+](=O)[O-])ccc12`, for which the GI50 with LOX IMVI melanoma, in the assay on A498 renal, with HCT-116 colon, with SF-268 CNS, with NCI-H460 lung and in the assay with SK-MEL-28 melanoma was greater than 50 µM in each case. The GI50 in the assay with CAKI-1 renal, in the assay on OVCAR-3 ovarian, in the assay on SF-295 CNS and in the assay with NCI-H522 lung was greater than 50 µM in each case. Further, the TGI in the assay on LOX IMVI melanoma, in the assay on A498 renal, in the assay with HCT-116 colon, in the assay on SF-268 CNS, with NCI-H460 lung and in the assay on SK-MEL-28 melanoma was greater than 50 µM each time. Further, the TGI in the assay with CAKI-1 renal, with OVCAR-3 ovarian, with SF-295 CNS and in the assay on NCI-H522 lung was greater than 50 µM throughout.
On to `NNCCc1ccc(NC(=O)CCCc2ccc(C(=O)Nc3ccccc3N)cc2)cc1`, for which the GI50 with LOX IMVI melanoma was 15.9 µM; with A498 renal it was 6.54 µM; with HCT-116 colon, 2.75 µM; with SF-268 CNS, 5.97 µM; with NCI-H460 lung, 13.3 µM; in the assay on SK-MEL-28 melanoma, 12.1 µM. The GI50 is 7.99 µM with CAKI-1 renal, 9.42 µM in the assay on OVCAR-3 ovarian, 13.3 µM with SF-295 CNS and 8.13 µM in the assay on NCI-H522 lung. For the same molecule, the TGI with LOX IMVI melanoma is greater than 100 µM; in the assay with A498 renal it was 28.5 µM; in the assay with HCT-116 colon, greater than 100 µM; in the assay on SF-268 CNS, greater than 100 µM; in the assay with NCI-H460 lung it was greater than 100 µM; with SK-MEL-28 melanoma it was greater than 100 µM. Also, the TGI in the assay with CAKI-1 renal, in the assay with OVCAR-3 ovarian, with SF-295 CNS and with NCI-H522 lung was greater than 100 µM throughout.
